Laboratory results published in US8192962B2, “Processes for detecting toxic substances” (Daikin Industries, Ltd., priority 2001, dated 2012).

Tested on: Genes belonging to other category
Assay: DNA chip mRNA expression in yeast, genes belonging to other category (Table 9)
Assay type: cell-based, Saccharomyces cerevisiae S288C
Procedure, shortened: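 Chemical exposure: 2 h, log-phase S. cerevisiae S288C, YPD, 25° C., dose set to inhibit growth without death. Profiling: mRNA labeled by reverse transcription with Cy3- or Cy5-dUTP, hybridized to whole-genome array. Output: fluorescence ratio against untreated culture.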

SMILES: C=CC=O [(14), acrolein]
- The level of expressed mRNA in the presence of chemical substance/The level of expressed mRNA in the absence of chemical substance (yeast gene YAL055W): 1.6
- The level of expressed mRNA in the presence of chemical substance/The level of expressed mRNA in the absence of chemical substance (yeast gene YAR009C): 1.0
- The level of expressed mRNA in the presence of chemical substance/The level of expressed mRNA in the absence of chemical substance (yeast gene YAR010C): 1.0
- The level of expressed mRNA in the presence of chemical substance/The level of expressed mRNA in the absence of chemical substance (yeast gene YAR062W): 1.1
- The level of expressed mRNA in the presence of chemical substance/The level of expressed mRNA in the absence of chemical substance (yeast gene YBL005W-A): 1.4
- The level of expressed mRNA in the presence of chemical substance/The level of expressed mRNA in the absence of chemical substance (yeast gene YBL041W): 2.0
- The level of expressed mRNA in the presence of chemical substance/The level of expressed mRNA in the absence of chemical substance (yeast gene YBL043W): 1.9
- The level of expressed mRNA in the presence of chemical substance/The level of expressed mRNA in the absence of chemical substance (yeast gene YBL078C): 3.6
- The level of expressed mRNA in the presence of chemical substance/The level of expressed mRNA in the absence of chemical substance (yeast gene YBL101W-A): 1.5
- The level of expressed mRNA in the presence of chemical substance/The level of expressed mRNA in the absence of chemical substance (yeast gene YBL102W): 1.1
- The level of expressed mRNA in the presence of chemical substance/The level of expressed mRNA in the absence of chemical substance (yeast gene YBR010W): 1.0
- The level of expressed mRNA in the presence of chemical substance/The level of expressed mRNA in the absence of chemical substance (yeast gene YBR026C): 1.5
- The level of expressed mRNA in the presence of chemical substance/The level of expressed mRNA in the absence of chemical substance (yeast gene YBR139W): 1.1
- The level of expressed mRNA in the presence of chemical substance/The level of expressed mRNA in the absence of chemical substance (yeast gene YBR170C): 1.3
- The level of expressed mRNA in the presence of chemical substance/The level of expressed mRNA in the absence of chemical substance (yeast gene YBR173C): 3.0
- The level of expressed mRNA in the presence of chemical substance/The level of expressed mRNA in the absence of chemical substance (yeast gene YBR177C): 1.3
- The level of expressed mRNA in the presence of chemical substance/The level of expressed mRNA in the absence of chemical substance (yeast gene YBR214W): 0.9
- The level of expressed mRNA in the presence of chemical substance/The level of expressed mRNA in the absence of chemical substance (yeast gene YBR239C): 1.1
- The level of expressed mRNA in the presence of chemical substance/The level of expressed mRNA in the absence of chemical substance (yeast gene YBR286W): 1.5
- The level of expressed mRNA in the presence of chemical substance/The level of expressed mRNA in the absence of chemical substance (yeast gene YBR290W): 1.4
- The level of expressed mRNA in the presence of chemical substance/The level of expressed mRNA in the absence of chemical substance (yeast gene YCL020W): 1.7
- The level of expressed mRNA in the presence of chemical substance/The level of expressed mRNA in the absence of chemical substance (yeast gene YCL027W): 1.2
- The level of expressed mRNA in the presence of chemical substance/The level of expressed mRNA in the absence of chemical substance (yeast gene YCR004C): 3.7
- The level of expressed mRNA in the presence of chemical substance/The level of expressed mRNA in the absence of chemical substance (yeast gene YCR062W): 1.0
- The level of expressed mRNA in the presence of chemical substance/The level of expressed mRNA in the absence of chemical substance (yeast gene YCR069W): 1.0
- The level of expressed mRNA in the presence of chemical substance/The level of expressed mRNA in the absence of chemical substance (yeast gene YCR071C): 1.7
- The level of expressed mRNA in the presence of chemical substance/The level of expressed mRNA in the absence of chemical substance (yeast gene YCR088W): 0.9
- The level of expressed mRNA in the presence of chemical substance/The level of expressed mRNA in the absence of chemical substance (yeast gene YDL008W): 2.2
- The level of expressed mRNA in the presence of chemical substance/The level of expressed mRNA in the absence of chemical substance (yeast gene YDL018C): 1.5
- The level of expressed mRNA in the presence of chemical substance/The level of expressed mRNA in the absence of chemical substance (yeast gene YDL137W): 1.4
- The level of expressed mRNA in the presence of chemical substance/The level of expressed mRNA in the absence of chemical substance (yeast gene YDL238C): 1.2
- The level of expressed mRNA in the presence of chemical substance/The level of expressed mRNA in the absence of chemical substance (yeast gene YDR055W): 0.9
- The level of expressed mRNA in the presence of chemical substance/The level of expressed mRNA in the absence of chemical substance (yeast gene YDR084C): 1.0
- The level of expressed mRNA in the presence of chemical substance/The level of expressed mRNA in the absence of chemical substance (yeast gene YDR085C): 1.6
- The level of expressed mRNA in the presence of chemical substance/The level of expressed mRNA in the absence of chemical substance (yeast gene YDR104C): 1.4
- The level of expressed mRNA in the presence of chemical substance/The level of expressed mRNA in the absence of chemical substance (yeast gene YDR115W): 1.5
- The level of expressed mRNA in the presence of chemical substance/The level of expressed mRNA in the absence of chemical substance (yeast gene YDR125C): 1.0
- The level of expressed mRNA in the presence of chemical substance/The level of expressed mRNA in the absence of chemical substance (yeast gene YDR168W): 1.4
- The level of expressed mRNA in the presence of chemical substance/The level of expressed mRNA in the absence of chemical substance (yeast gene YDR259C): 1.5
- The level of expressed mRNA in the presence of chemical substance/The level of expressed mRNA in the absence of chemical substance (yeast gene YDR304C): 1.7
- The level of expressed mRNA in the presence of chemical substance/The level of expressed mRNA in the absence of chemical substance (yeast gene YDR315C): 1.4
- The level of expressed mRNA in the presence of chemical substance/The level of expressed mRNA in the absence of chemical substance (yeast gene YDR358W): 1.2
- The level of expressed mRNA in the presence of chemical substance/The level of expressed mRNA in the absence of chemical substance (yeast gene YDR373W): 2.1
- The level of expressed mRNA in the presence of chemical substance/The level of expressed mRNA in the absence of chemical substance (yeast gene YDR378C): 1.4
- The level of expressed mRNA in the presence of chemical substance/The level of expressed mRNA in the absence of chemical substance (yeast gene YDR388W): 0.6
- The level of expressed mRNA in the presence of chemical substance/The level of expressed mRNA in the absence of chemical substance (yeast gene YDR403W): 1.1
- The level of expressed mRNA in the presence of chemical substance/The level of expressed mRNA in the absence of chemical substance (yeast gene YDR427W): 1.0
